ChEMBL document CHEMBL4020829, “Structure-Activity Relationships and Computational Investigations into the Development of Potent and Balanced Dual-Acting Butyrylcholinesterase Inhibitors and Human Cannabinoid Receptor 2 Ligands with Pro-Cognitive in Vivo Profiles” (J Med Chem, 2018)
Activity calls are given as the source filed them. The rule behind the calls is not given here.

How the values were obtained:
[1] = target: T1, Cholinesterase (Homo sapiens, UniProt P06276)
[2] = target: T2, Cannabinoid receptor 1 (Homo sapiens, UniProt P21554); assay: Displacement of [3H]-[…] from human CB1 receptor expressed in CHO cell membranes at 10 uM after 3 hrs by scintillation counting method relative to control
T2 sequence (P21554 whole entry): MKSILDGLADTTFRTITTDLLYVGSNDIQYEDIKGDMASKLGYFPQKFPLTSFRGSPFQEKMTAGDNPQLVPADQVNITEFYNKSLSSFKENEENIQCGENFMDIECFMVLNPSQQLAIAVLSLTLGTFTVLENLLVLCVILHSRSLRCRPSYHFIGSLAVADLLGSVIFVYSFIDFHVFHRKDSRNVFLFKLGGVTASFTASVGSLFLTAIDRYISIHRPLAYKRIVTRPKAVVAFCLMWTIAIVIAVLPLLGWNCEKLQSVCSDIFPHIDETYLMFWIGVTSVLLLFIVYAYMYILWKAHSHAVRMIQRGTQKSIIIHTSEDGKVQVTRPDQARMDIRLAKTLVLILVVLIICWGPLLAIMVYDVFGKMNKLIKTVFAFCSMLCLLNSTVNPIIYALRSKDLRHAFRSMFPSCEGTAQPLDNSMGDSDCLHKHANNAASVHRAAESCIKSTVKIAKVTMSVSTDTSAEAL

[3] = target: T3, Acetylcholinesterase (Homo sapiens, UniProt P22303); assay: Inhibition of human erythrocyte AChE at 10 uM using ATC iodide as substrate preincubated for 4.5 mins followed by substrate addition measured after 2.5 mins by Ellman's method relative to control
T3 sequence (P22303 whole entry): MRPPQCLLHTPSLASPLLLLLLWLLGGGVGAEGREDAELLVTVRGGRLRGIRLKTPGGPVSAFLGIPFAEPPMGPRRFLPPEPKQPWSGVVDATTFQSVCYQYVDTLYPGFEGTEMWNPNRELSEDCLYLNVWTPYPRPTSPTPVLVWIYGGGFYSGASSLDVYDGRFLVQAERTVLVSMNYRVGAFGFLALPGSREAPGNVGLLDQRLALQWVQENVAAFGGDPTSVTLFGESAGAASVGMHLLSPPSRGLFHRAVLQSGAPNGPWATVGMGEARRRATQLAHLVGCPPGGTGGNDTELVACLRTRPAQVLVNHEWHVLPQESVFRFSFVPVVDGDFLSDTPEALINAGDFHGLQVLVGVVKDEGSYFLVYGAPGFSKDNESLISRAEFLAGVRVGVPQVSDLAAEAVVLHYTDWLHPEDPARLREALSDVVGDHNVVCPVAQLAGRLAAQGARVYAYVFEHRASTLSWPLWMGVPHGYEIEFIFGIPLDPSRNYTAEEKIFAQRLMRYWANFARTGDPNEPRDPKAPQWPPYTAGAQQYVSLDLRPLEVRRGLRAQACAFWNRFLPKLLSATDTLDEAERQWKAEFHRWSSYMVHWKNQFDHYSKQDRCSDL

[4] = target: T4, Cannabinoid receptor 2 (Homo sapiens, UniProt P34972); assay: biochemical
T4 sequence (P34972 whole entry): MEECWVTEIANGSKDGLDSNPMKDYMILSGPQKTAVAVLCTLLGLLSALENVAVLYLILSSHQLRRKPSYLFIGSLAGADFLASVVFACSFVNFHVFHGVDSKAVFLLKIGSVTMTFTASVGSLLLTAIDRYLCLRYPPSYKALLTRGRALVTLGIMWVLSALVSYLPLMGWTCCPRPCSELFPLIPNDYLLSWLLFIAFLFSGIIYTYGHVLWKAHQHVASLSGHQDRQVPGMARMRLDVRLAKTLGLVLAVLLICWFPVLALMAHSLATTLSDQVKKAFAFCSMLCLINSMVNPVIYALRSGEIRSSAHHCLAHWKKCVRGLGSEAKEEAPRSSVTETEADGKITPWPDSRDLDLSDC
Description: Displacement of [3H]-CP55950 from human CB2 receptor expressed in HEK cell membranes after 3 hrs by scintillation counting method

[5] = target: Acetylcholinesterase (Electrophorus electricus) (UniProt O42275); assay: Inhibition of electric eel AChE at 10 uM using ATC iodide as substrate preincubated for 4.5 mins followed by substrate addition measured after 2.5 mins by Ellman's method relative to control
Sequence of Acetylcholinesterase (Electrophorus electricus) (O42275 24-633 limits assumed): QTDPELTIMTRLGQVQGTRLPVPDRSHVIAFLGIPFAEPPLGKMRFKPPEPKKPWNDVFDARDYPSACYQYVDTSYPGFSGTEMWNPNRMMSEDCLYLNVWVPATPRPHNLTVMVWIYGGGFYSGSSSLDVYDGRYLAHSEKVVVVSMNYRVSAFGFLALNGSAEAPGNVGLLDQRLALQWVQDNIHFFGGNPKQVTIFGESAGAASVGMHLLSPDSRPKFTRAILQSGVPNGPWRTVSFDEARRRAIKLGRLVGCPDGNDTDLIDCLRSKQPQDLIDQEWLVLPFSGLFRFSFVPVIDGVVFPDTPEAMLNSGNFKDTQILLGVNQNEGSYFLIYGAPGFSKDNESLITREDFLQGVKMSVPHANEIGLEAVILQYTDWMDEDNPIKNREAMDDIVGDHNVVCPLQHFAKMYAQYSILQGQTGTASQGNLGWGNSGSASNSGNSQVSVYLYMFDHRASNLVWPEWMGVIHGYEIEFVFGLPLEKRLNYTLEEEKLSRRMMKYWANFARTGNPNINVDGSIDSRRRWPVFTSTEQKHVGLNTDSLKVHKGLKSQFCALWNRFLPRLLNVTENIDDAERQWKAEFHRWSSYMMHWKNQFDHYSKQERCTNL

[6] = tested on: U-266; assay: Cytotoxicity against human U266 cells assessed as decrease in cell viability after 72 hrs by MTT assay; assay type: cell-based; settings: U-266, 72 h
[7] = target: T4, Cannabinoid receptor 2; settings: 10 uM
Description: Displacement of [3H]-CP55950 from human CB2 receptor expressed in HEK cell membranes at 10 uM after 3 hrs by scintillation counting method relative to control

[8] = target: T1, Cholinesterase; assay: Inhibition of human BChE at 100 uM using BTC iodide as substrate preincubated for 4.5 mins followed by substrate addition measured after 2.5 mins by Ellman's method relative to control
[9] = target: Acetylcholinesterase (Electrophorus electricus) (UniProt O42275); assay: Inhibition of electric eel AChE at 100 uM using ATC iodide as substrate preincubated for 4.5 mins followed by substrate addition measured after 2.5 mins by Ellman's method relative to control
[10] = target: T4, Cannabinoid receptor 2; assay: Agonist activity at CB2 receptor in human U266 cells assessed as decrease in AM630-induced STAT3 mRNA expression at 50 uM after 2 hrs by qRT-PCR method; assay type: cell-based
[11] = target: Cholinesterase (Equus caballus, UniProt P81908); assay: Inhibition of equine BChE using BTC iodide as substrate preincubated for 4.5 mins followed by substrate addition measured after 2.5 mins by Ellman's method
Sequence of Cholinesterase (Equus caballus, UniProt P81908) (P81908 whole entry): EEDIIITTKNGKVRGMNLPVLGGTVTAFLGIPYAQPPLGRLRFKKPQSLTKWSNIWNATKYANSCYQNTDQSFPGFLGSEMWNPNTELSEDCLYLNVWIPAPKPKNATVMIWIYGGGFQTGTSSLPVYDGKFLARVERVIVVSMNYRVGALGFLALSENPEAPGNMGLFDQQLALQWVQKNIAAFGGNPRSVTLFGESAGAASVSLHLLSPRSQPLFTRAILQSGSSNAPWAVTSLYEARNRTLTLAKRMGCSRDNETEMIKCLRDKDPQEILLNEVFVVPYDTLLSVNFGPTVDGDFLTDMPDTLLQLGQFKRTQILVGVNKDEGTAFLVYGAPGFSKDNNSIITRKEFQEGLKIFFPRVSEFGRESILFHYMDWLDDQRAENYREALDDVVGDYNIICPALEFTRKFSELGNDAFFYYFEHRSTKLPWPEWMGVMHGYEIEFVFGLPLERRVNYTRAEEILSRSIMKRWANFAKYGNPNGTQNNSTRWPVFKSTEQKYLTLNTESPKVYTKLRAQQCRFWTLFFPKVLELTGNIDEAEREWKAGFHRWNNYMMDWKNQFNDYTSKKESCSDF

[12] = target: T4, Cannabinoid receptor 2; assay: Agonist activity at CB2 receptor in human U266 cells assessed as decrease in cAMP accumulation at 50 uM after 2 hrs by ELISA; assay type: functional, cell-based
[13] = target: T4, Cannabinoid receptor 2; assay: Agonist activity at CB2 receptor in human U266 cells assessed as decrease in AM630-induced MIF mRNA expression at 50 uM after 2 hrs by qRT-PCR method; assay type: cell-based
[14] = target: T1, Cholinesterase; assay: Inhibition of human BChE at 10 uM using BTC iodide as substrate preincubated for 4.5 mins followed by substrate addition measured after 2.5 mins by Ellman's method relative to control
[15] = target: T4, Cannabinoid receptor 2; assay: Agonist activity at CB2 receptor in human U266 cells assessed as decrease in MIF mRNA expression at 50 uM after 2 hrs by qRT-PCR method; assay type: cell-based
[16] = target: T4, Cannabinoid receptor 2; assay: Agonist activity at CB2 receptor in human U266 cells assessed as decrease in AM630-induced cAMP accumulation at 50 uM after 2 hrs by ELISA; assay type: functional, cell-based
[17] = target: T4, Cannabinoid receptor 2; assay: Agonist activity at CB2 receptor in human U266 cells assessed as decrease in STAT3 mRNA expression at 50 uM after 2 hrs by qRT-PCR method; assay type: cell-based
[18] = target: Acetylcholinesterase (Electrophorus electricus) (UniProt O42275); assay: Inhibition of electric eel AChE at 25 uM using ATC iodide as substrate preincubated for 4.5 mins followed by substrate addition measured after 2.5 mins by Ellman's method relative to control
[19] = target: T1, Cholinesterase; assay: Inhibition of human BChE at 25 uM using BTC iodide as substrate preincubated for 4.5 mins followed by substrate addition measured after 2.5 mins by Ellman's method relative to control
[20] = target: T3, Acetylcholinesterase
[21] = target: Acetylcholinesterase (Electrophorus electricus, UniProt O42275); assay: Inhibition of electric eel AChE using ATC iodide as substrate preincubated for 4.5 mins followed by substrate addition measured after 2.5 mins by Ellman's method
Sequence of Acetylcholinesterase (Electrophorus electricus, UniProt O42275) (O42275 whole entry): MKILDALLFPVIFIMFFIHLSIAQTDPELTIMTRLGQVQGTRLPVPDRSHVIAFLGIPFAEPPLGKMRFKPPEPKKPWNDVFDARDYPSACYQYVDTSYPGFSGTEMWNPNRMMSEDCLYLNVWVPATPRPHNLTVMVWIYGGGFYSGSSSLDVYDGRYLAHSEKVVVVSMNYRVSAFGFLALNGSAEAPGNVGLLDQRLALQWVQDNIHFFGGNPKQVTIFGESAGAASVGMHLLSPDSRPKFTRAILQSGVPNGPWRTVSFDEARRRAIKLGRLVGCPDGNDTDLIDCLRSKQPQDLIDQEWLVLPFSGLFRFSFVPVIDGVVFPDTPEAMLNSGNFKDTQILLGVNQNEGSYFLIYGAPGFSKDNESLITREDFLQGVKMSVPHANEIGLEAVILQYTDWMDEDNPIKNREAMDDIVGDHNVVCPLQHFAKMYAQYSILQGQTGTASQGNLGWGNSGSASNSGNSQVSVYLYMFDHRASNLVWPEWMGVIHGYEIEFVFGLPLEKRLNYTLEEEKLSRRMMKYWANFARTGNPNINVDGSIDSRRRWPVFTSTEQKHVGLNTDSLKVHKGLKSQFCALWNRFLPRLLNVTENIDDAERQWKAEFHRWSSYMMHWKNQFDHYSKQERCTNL

[22] = target: T2, Cannabinoid receptor 1; assay: biochemical; assay type: cell-based
Description: Displacement of [3H]-CP55950 from human CB1 receptor expressed in CHO cell membranes after 3 hrs by scintillation counting method

[23] = tested on: Mus musculus; assay: Toxicity in Swiss mouse assessed as body weight loss at 0.3 to 3 mg/kg, ip administered for 7 days measured during compound dosing; assay type: organism-based; settings: in vivo, 168 h
[24] = tested on: Mus musculus; assay: Toxicity in Swiss mouse assessed as body weight gain per day at 3 mg/kg, ip administered for 7 days measured during compound dosing; assay type: organism-based; settings: in vivo, 168 h
[25] = tested on: Mus musculus; assay: Pro-cognitive activity in ip dosed Swiss mouse assessed as prevention of amyloid beta (25 to 35)-induced step through latency deficit administered for 7 days measured on day 10 by passive avoidance test; assay type: functional, organism-based
[26] = tested on: Mus musculus; assay: Toxicity in Swiss mouse assessed as body weight gain per day at 0.3 mg/kg, ip administered for 7 days measured during compound dosing; assay type: organism-based; settings: in vivo, 168 h
[27] = tested on: Mus musculus; assay: Toxicity in Swiss mouse assessed as abdominal pain at 0.3 to 3 mg/kg, ip administered for 7 days measured during compound dosing; assay type: organism-based; settings: in vivo, 168 h
[28] = tested on: Mus musculus; assay: Toxicity in Swiss mouse assessed as body weight gain per day at 1 mg/kg, ip administered for 7 days measured during compound dosing; assay type: organism-based; settings: in vivo, 168 h
[29] = tested on: Mus musculus; assay: Toxicity in Swiss mouse assessed as changes in fur aspects at 0.3 to 3 mg/kg, ip administered for 7 days measured during compound dosing; assay type: organism-based; settings: in vivo, 168 h
[30] = tested on: Mus musculus; assay: Toxicity in Swiss mouse assessed as prostration at 0.3 to 3 mg/kg, ip administered for 7 days measured during compound dosing; assay type: organism-based; settings: in vivo, 168 h
[31] = tested on: Mus musculus; assay: Toxicity in Swiss mouse assessed as behavioral alteration at 0.3 to 3 mg/kg, ip administered for 7 days measured during compound dosing; assay type: organism-based; settings: in vivo, 168 h
[32] = tested on: Mus musculus; assay: Pro-cognitive activity in Swiss mouse assessed as prevention of amyloid beta (25 to 35)-induced increase in escape latency at 1 to 3 mg/kg, ip administered for 7 days measured on day 10 by passive avoidance test; assay type: functional, organism-based
[33] = tested on: Mus musculus; assay: Pro-cognitive activity in amyloid beta (25 to 35)-treated Swiss mouse assessed as increase in locomotion by measuring number of arms entered during session at 3 mg/kg, ip administered for 7 days measured on day 8 by Y-maze test; assay type: functional, organism-based
[34] = tested on: Mus musculus; assay: Toxicity in Swiss mouse assessed as body weight gain per day at 0.3 to 3 mg/kg, ip administered for 7 days measured during compound dosing; assay type: organism-based; settings: in vivo, 168 h
[35] = tested on: Mus musculus; assay: Pro-cognitive activity in Swiss mouse assessed as prevention of amyloid beta (25 to 35)-induced step through latency deficit at 3 mg/kg, ip administered for 7 days measured on day 10 by passive avoidance test; assay type: functional, organism-based
[36] = target: Acetylcholinesterase (Electrophorus electricus) (UniProt O42275); assay: Inhibition of electric eel AChE at 50 uM using ATC iodide as substrate preincubated for 4.5 mins followed by substrate addition measured after 2.5 mins by Ellman's method relative to control
[37] = target: T1, Cholinesterase; assay: Inhibition of human BChE at 50 uM using BTC iodide as substrate preincubated for 4.5 mins followed by substrate addition measured after 2.5 mins by Ellman's method relative to control
[38] = target: T3, Acetylcholinesterase; assay: Inhibition of human erythrocyte AChE at 100 uM using ATC iodide as substrate preincubated for 4.5 mins followed by substrate addition measured after 2.5 mins by Ellman's method relative to control

T1 sequence (P06276 whole entry): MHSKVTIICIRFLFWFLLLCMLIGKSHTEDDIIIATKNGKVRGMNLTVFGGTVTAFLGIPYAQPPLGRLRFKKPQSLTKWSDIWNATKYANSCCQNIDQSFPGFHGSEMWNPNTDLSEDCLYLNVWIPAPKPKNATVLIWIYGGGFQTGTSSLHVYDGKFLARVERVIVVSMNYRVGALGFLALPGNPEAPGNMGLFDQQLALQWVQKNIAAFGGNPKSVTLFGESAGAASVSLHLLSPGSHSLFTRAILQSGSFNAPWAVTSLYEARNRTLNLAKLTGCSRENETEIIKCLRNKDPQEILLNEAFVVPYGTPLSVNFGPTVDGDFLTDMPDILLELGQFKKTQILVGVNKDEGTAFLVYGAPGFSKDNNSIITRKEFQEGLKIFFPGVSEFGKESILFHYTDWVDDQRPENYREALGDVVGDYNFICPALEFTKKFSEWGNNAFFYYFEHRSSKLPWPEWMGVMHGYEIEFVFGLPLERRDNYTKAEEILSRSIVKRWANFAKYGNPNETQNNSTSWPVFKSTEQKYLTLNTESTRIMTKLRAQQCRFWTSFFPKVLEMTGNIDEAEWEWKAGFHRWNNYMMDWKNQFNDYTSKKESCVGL

CCOc1ccc(Cc2nc3cc(C(=O)Nc4ccccc4)ccc3n2CCC(C)C)cc1
IC50 [1]: 1.2 µM | inhibition [2]: 18% | inhibition [3]: 5% | IC50 [4]: 15.8 µM | Ki [4]: 14.4 µM | inhibition [5]: 2% | IC50 [6]: > 40 µM

Cc1c(C(=O)NN2CCCCC2)nn(-c2ccc(Cl)cc2Cl)c1-c1ccc(Cl)cc1
inhibition [7]: 4%

CCOc1ccc(Cc2nc3cc(N)ccc3n2CCC(C)C)cc1
inhibition [2]: 27% | IC50 [4]: 20 µM | Ki [4]: 21 µM | inhibition [8]: 39% | inhibition [9]: 15%

CCN(CC)C(=O)c1ccc2c(c1)nc(Nc1ccc(Oc3ccccc3)cc1)n2CCC(C)C
Activity [10]: Active | inhibition [2]: 45% | IC50 [11]: 3.7 µM | inhibition [3]: 3% | Activity [12]: Active | Activity [13]: Active | IC50 [4]: 0.501 µM | Ki [4]: 0.426 µM | inhibition [14]: 0% | Activity [15]: Active | Activity [16]: Active | Activity [17]: Active | IC50 [6]: > 40 µM | inhibition [9]: 2%

CCOc1ccc(Cc2nc3cc(C(=O)NC45CC6CC(CC(C6)C4)C5)ccc3n2CCC(C)C)cc1
inhibition [2]: 31% | IC50 [4]: 5.01 µM | Ki [4]: 4.7 µM | inhibition [5]: 5% | inhibition [14]: 1% | IC50 [6]: > 40 µM

CCN(CC)C(=O)c1ccc2c(c1)nc(Nc1ccc(Oc3ccccc3)cc1)n2CCN1CCCCC1
inhibition [2]: 37% | inhibition [18]: 3% | IC50 [4]: 7.94 µM | Ki [4]: 8.9 µM | inhibition [19]: 4%

CCCCCCNC(=O)c1ccc2c(c1)nc(Cc1ccc(OCC)cc1)n2CCC(C)C
IC50 [1]: 5.2 µM | inhibition [2]: 39% | inhibition [3]: 6% | IC50 [4]: 2 µM | Ki [4]: 1.9 µM | inhibition [5]: 8% | IC50 [6]: > 40 µM

CCOc1ccc(Cc2nc3cc(C(=O)N(CC)CC)ccc3n2CCCCN2CCCCC2)cc1
IC50 [1]: 2.7 µM | inhibition [2]: 2% | IC50 [20]: 60.1 µM | IC50 [4]: 5.01 µM | Ki [4]: 4.8 µM | IC50 [21]: 20.5 µM | IC50 [6]: > 40 µM

CCOc1ccc(Cc2nc3cc(C(=O)N4CCCCC4)ccc3n2CCC(C)C)cc1
IC50 [1]: 5.7 µM | inhibition [3]: 2% | IC50 [4]: 0.398 µM | Ki [4]: 0.384 µM | inhibition [5]: 8% | IC50 [22]: 15.8 µM | Ki [22]: 17 µM

CCOc1ccc(Cc2nc3cc(C(=O)NCCC(C)C)ccc3n2CCC(C)C)cc1
Activity [23]: Non-Toxic | Activity [24]: 0 g | inhibition [2]: 37% | inhibition [3]: 11% | Activity [25]: Dose-dependent effect | inhibition [18]: 3% | Activity [26]: 0.2 g | Activity [27]: Non-Toxic | Activity [28]: 0.1 g | Activity [29]: Non-Toxic | IC50 [6]: > 40 µM | Activity [30]: Non-Toxic | Activity [31]: Non-Toxic | Activity [32]: Active

CCOc1ccc(Cc2nc3cc(NC(=O)c4ccccc4)ccc3n2CCC(C)C)cc1
inhibition [2]: 36% | IC50 [4]: 3.98 µM | Ki [4]: 4.3 µM | inhibition [5]: 2% | inhibition [14]: 25%

CCOc1ccc(Nc2nc3cc(C(=O)N(CC)CC)ccc3n2CCC(C)C)cc1
Activity [10]: Active | Activity [33]: Active | inhibition [2]: 13% | IC50 [11]: 0.7 µM | inhibition [3]: 13% | Activity [12]: Active | Activity [13]: Active | IC50 [4]: 2 µM | Ki [4]: 1.9 µM | Activity [34]: 0.3 g | inhibition [14]: 3% | Activity [15]: Active | Activity [16]: Active | Activity [17]: Active | IC50 [6]: > 40 µM | inhibition [9]: 4% | Activity [32]: Active | Activity [35]: Active

CCOc1ccc(CNc2nc3cc(C(=O)N(CC)CC)ccc3n2CCC(C)C)cc1
inhibition [36]: 7% | inhibition [2]: 21% | inhibition [37]: 4% | IC50 [4]: 0.398 µM | Ki [4]: 0.353 µM

CCOc1ccc(Cc2nc3cc(C(=O)N(CC)CC)ccc3n2CCCCCCN2CCCCC2)cc1
IC50 [1]: 8.2 µM | inhibition [2]: 4% | IC50 [20]: 20 µM | IC50 [4]: 1.26 µM | Ki [4]: 1 µM | IC50 [21]: 11.9 µM

CCOc1ccc(Nc2nc3cc(C(=O)N(CC)CC)ccc3n2CCN2CCCCC2)cc1
IC50 [1]: 53.4 µM | inhibition [2]: 17% | inhibition [3]: 3% | IC50 [4]: 12.6 µM | Ki [4]: 10.4 µM | inhibition [9]: 18%

CCOc1ccc(Cc2nc3cc(C(=O)N(CC)CC)ccc3n2CCC(C)C)cc1
Activity [10]: Active | Activity [33]: Active | inhibition [2]: 24% | IC50 [11]: 9.7 µM | Activity [12]: Active | Activity [13]: Active | inhibition [38]: 6% | Activity [34]: 0.3 g | inhibition [14]: 2% | Activity [15]: Active | Activity [16]: Active | Activity [17]: Active | inhibition [9]: 28% | Activity [32]: Active
